Measured values reported in US11312719B2, “9-substituted amino triazolo quinazoline derivatives as adenosine receptor antagonists, pharmaceutical compositions and their use” (Merck Sharp & Dohme Corp., priority 2018, dated 2022).

Experiments:
[1] = molecular target: human A2b adenosine receptor (Homo sapiens (Human), UniProt P29275); test: A2b radioligand filtration binding assay; settings: for IC50: membranes from HEK293 cells expressing human A2b receptor
Description: Measurement of A2b Binding Affinity
The reported affinity of the compounds of the invention for the human A2b adenosine receptor was determined experimentally using a radioligand filtration binding assay. This assay measures the amount of binding of a tritiated proprietary A2b receptor antagonist, in the presence and absence of a compound of the invention, to membranes made from HEK293 cells recombinantly expressing the human A2b adenosine receptor (Perkin Elmer, Cat. No. ES-013-C).
148 μL (135 μg/mL) membranes and 2 μL test compounds were transferred to individual wells of a 96-well polypropylene assay plate and incubated for 15 to 30 minutes at room temperature with agitation. Tritiated radioligand was diluted to a concentration of 14 nM in assay buffer (phosphate buffered saline without Magnesium and Calcium, pH 7.4; GE Healthcare Life Sciences, Cat. No. SH30256.01) and then 50 μL of the solution were transferred to each well of the assay plate. To define total and non-specific binding, wells containing 1% DMSO and 20 μM N-ethylcarboxamidoadenosine (Tocris Bioscience, Cat. No. 1691) respectively, were also included. The wells of the assay plate were incubated at room temperature for 60 minutes with agitation, then filtered using a FilterMate Harvester® (Perkin Elmer) or similar equipment through a UniFilter-96® PEI coated plate (Perkin Elmer Cat. No. 6005274 or 6005277). Filtering was achieved by aspirating the contents of the assay plate for 5 seconds, then washing and aspirating the contents three times with ice-cooled wash buffer (assay buffer supplemented with 0.0025% Brij58) and allowing the vacuum manifold to dry the plate for 30 seconds. The filter plate was incubated for at least 1 hour at 55° C. and allowed to dry. The bottom of the filter plate was then sealed with backing tape. 40 μL Ultima Gold™ (Perkin Elmer, Cat. No. 6013329) was added to each well of the filter plate and the top of the plate was sealed with TopSeal-A PLUS® clear plate seal (Perkin Elmer, Cat. No. 6050185). The plates were then incubated for at least 20 minutes, and then the amount of radioactivity remaining in each well was determined using a TopCount® (Perkin Elmer) scintillation counter. After normalization to total and non-specific binding, the percent effect at each compound concentration was calculated. The plot of percent effect versus the log of compound concentration was analyzed electronically using a 4-parameter logistic fit based on the Levenberg-Marquardt algorithm to generate IC50 values.

[2] = molecular target: human A2a adenosine receptor (Homo sapiens (Human), UniProt P29274); test: A2a receptor affinity radioligand binding assay ([3H] SCH58261); settings: for IC50: membranes from HEK293 or CHO cells expressing human A2a receptor
human A2a adenosine receptor, sequence (P29274 whole entry): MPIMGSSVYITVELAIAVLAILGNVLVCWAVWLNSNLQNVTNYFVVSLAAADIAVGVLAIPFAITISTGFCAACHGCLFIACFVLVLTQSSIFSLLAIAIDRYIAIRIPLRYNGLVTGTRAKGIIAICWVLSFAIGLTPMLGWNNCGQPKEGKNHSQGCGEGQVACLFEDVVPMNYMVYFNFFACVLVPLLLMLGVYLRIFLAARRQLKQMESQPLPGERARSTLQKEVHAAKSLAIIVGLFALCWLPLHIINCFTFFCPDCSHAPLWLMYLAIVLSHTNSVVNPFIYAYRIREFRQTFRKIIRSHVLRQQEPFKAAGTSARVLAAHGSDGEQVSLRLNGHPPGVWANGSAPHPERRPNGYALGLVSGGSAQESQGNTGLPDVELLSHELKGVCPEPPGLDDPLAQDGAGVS
Description: The A2a receptor affinity binding assay measured the amount of binding of a tritiated ligand with high affinity for the A2a adenosine receptor to membranes made from HEK293 or CHO cells recombinantly expressing the human A2a adenosine receptor, in the presence of varying concentrations of a compound of the invention.
Measurement of A2a Binding Affinity Using Radioligand Binding
148 μL (5 μg/mL) membranes (Perkin Elmer, Cat. No. RBHA2aM400UA) and 2 μL compounds of the invention to be tested (test compound) were transferred to individual wells of a 96-well polypropylene assay plate and incubated for 15 to 30 minutes at room temperature. [^3H] SCH58261 ((7-(2-phenylethyl)-5-amino-2-(2-furyl)-pyrazolo-[4,3-e]-1,2,4-triazolo[1,5-c]pyrimidine)) was diluted in assay buffer (50 mM Tris pH 7.4, 10 mM MgCl2, 0.005% Tween20) to a concentration of 4 nM and 50 μL transferred to each well of the assay plate. To define total and non-specific binding, wells containing 1% DMSO and 1 μM ZM241385 (Tocris Bioscience, Cat. No. 1036) respectively, were also included. The assay plate was incubated at room temperature for 60 minutes with agitation. Using a FilterMate Harvester® (Perkin Elmer), the contents of the assay plate were filtered through a UniFilter-96® PEI coated plate (Perkin Elmer Cat. No. 6005274 or 6005277). Filtering was achieved by aspirating the contents of the assay plate for 5 seconds, then washing and aspirating the contents three times with ice-cooled wash buffer (50 mM Tris-HCl pH 7.4, 150 mM NaCl) and allowing the vacuum manifold to dry the plate for 30 seconds. The filter plate was incubated for at least 1 hour at 55° C., and allowed to dry. The bottom of the filter plate was sealed with backing tape. 40 μL Ultima Gold™ (Perkin Elmer, Cat. No. 6013329) was added to each well of the filter plate and the top of the plate was sealed with TopSeal-A PLUS® clear plate seal (Perkin Elmer, Cat. No. 6050185). The plate was incubated for at least 20 minutes, and then the amount of radioactivity remaining in each well was determined using a TopCount® (Perkin Elmer) scintillation counter. After normalization to total and non-specific binding, the percent effect at each compound concentration was calculated. The plot of percent effect versus the log of compound concentration was analyzed electronically using a 4-parameter logistic fit based on the Levenberg-Marquardt algorithm to generate IC50 values.

human A2b adenosine receptor, sequence (P29275 whole entry): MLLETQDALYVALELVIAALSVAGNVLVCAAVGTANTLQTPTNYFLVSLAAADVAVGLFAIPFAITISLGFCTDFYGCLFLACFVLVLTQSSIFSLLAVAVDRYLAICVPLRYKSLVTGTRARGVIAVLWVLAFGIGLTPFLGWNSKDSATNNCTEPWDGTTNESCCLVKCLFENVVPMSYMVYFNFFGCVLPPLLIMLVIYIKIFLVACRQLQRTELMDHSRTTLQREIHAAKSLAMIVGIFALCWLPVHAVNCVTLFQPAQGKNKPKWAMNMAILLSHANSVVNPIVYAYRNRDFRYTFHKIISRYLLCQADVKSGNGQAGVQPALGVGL

SMILES	IC50 [1] [nM]	IC50 [2] [nM]	A2A binding % Inh. @ 1000 nM ([2]; @ 1000 nM) [% Inh. @]	A2B binding % Inh. @ 10000 nM ([1]; @ 10000 nM) [% Inh.]
COc1ccc(N2CCC[C@@H](c3nc4c5cc(F)cc(OC)c5nc(N)n4n3)C2)cn1 [Example 34, (R)-9-fluoro-7-methoxy-2-(1-(6-methoxypyridin-3-yl)piperidin-3-yl)-[1,2,4]triazolo[1,5-c]quinazolin-5-amine]	29.7	1.4	–	–
COc1cc2nc(N)n3nc([C@@H]4CCCN(c5ccc(OC(C)C)nc5)C4)nc3c2cc1F [Example 23, (R)-9-fluoro-2-(1-(6-isopropoxypyridin-3-yl)piperidin-3-yl)-8-methoxy-[1,2,4]triazolo[1,5-c]quinazolin-5-amine]	15.9	2	–	–
COc1cc2nc(N)n3nc([C@@H]4CCCN(c5cn(CS(C)(=O)=O)nc5C(F)F)C4)nc3c2cc1F [Example 132, (R)-2-(1-(3-(difluoromethyl)-1-((methylsulfonyl)methyl)-pyrazol-4-yl)piperidin-3-yl)-9-fluoro-8-methoxy-[1,2,4]triazolo[1,5-c]quinazolin-5-amine]	243	6.7	–	–
COc1cc(F)cc2c1nc(N)n1nc(C3CCC(C)N(c4cnn(C(C)(C)CO)c4)C3)nc21 (single isomer, unassigned) [Example 123, 2-(4-((2S or 2R,5S or 5R)-5-(5-amino-9-fluoro-7-methoxy-[1,2,4]triazolo[1,5-c]quinazolin-2-yl)-2-methylpiperidin-1-yl)-1H-pyrazol-1-yl)-2-methylpropan-1-ol]	422	0.3	–	–
COc1cc2nc(N)n3nc([C@@H]4CCCN(c5cnn(C6CCCC6O)c5)C4)nc3c2cc1F (single isomer, unassigned) [Example 85, (1S or 1R,2S or 2R)-2-(4-((R)-3-(5-amino-9-fluoro-8-methoxy-[1,2,4]triazolo[1,5-c]quinazolin-2-yl)piperidin-1-yl)-1H-pyrazol-1-yl)cyclopentan-1-ol]	192	5.2	–	–
Cc1cc(Cl)cc2c1nc(N)n1nc(C3CCCN(c4cnn(C)c4)C3)nc21 (single isomer, unassigned) [Example 105, (R or S)-9-chloro-7-methyl-2-(1-(1-methyl-1H-pyrazol-4-yl)piperidin-3-yl)-[1,2,4]triazolo[1,5-c]quinazolin-5-amine]	743	329	–	–
COc1cc(F)cc2c1nc(N)n1nc([C@H]3CC[C@H](C)N(c4cn(CC(C)(C)O)nc4C)C3)nc21 (single isomer, unassigned) [Example 116, 1-(4-((2S or 2R,5S or 5R)-5-(5-amino-9-fluoro-7-methoxy-[1,2,4]triazolo[1,5-c]quinazolin-2-yl)-2-methylpiperidin-1-yl)-3-methyl-1H-pyrazol-1-yl)-2-methylpropan-2-ol]	–	207	–	35
COc1cc2nc(N)n3nc(C4CCC(C)N(c5cnn(C6CCCC6O)c5)C4)nc3c2cc1F (single isomer, unassigned) [Example 88, (1R or 1S,2R or 2S)-2-(4-((2S,5R or 2R,5S)-5-(5-amino-9-fluoro-8-methoxy-[1,2,4]triazolo[1,5-c]quinazolin-2-yl)-2-methylpiperidin-1-yl)-1H-pyrazol-1-yl)cyclopentan-1-ol]	1.8	0.1	–	–
CCn1cc([C@]2(O)CCC[C@@H](c3nc4c5cc(F)c(OC)cc5nc(N)n4n3)C2)cn1 (single isomer, unassigned) [Example 149, (1S or 1R,3R or 3S)-3-(5-amino-9-fluoro-8-methoxy-[1,2,4]triazolo[1,5-c]quinazolin-2-yl)-1-(1-ethyl-1H-pyrazol-4-yl)cyclohexan-1-ol]	96.6	1.8	–	–
Cn1cc(N2CCC[C@@H](c3nc4c5cc(Cl)cc(Cl)c5nc(N)n4n3)C2)cn1 [Example 113, (R)-7,9-dichloro-2-(1-(1-methyl-1H-pyrazol-4-yl)piperidin-3-yl)-[1,2,4]triazolo[1,5-c]quinazolin-5-amine]	470	58.1	–	–
COc1cc(F)cc2c1nc(N)n1nc([C@@H]3CC[C@H](C)N(c4cn(CC(C)(C)O)nc4C)C3)nc21 (single isomer, unassigned) [Example 115, 1-(4-((2S or 2R,5R or 5S)-5-(5-amino-9-fluoro-7-methoxy-[1,2,4]triazolo[1,5-c]quinazolin-2-yl)-2-methylpiperidin-1-yl)-3-methyl-1H-pyrazol-1-yl)-2-methylpropan-2-ol]	895	2.9	–	–

More lines, now with the values ahead:

IC50 [1] [nM]	IC50 [2] [nM]	A2A binding % Inh. @ 1000 nM ([2]; @ 1000 nM) [% Inh. @]	A2B binding % Inh. @ 10000 nM ([1]; @ 10000 nM) [% Inh.]	SMILES
136	13.6	–	–	COc1cc2nc(N)n3nc(C45CC4CN(c4cnn(CC(C)(C)O)c4)C5)nc3c2cc1F (single isomer, unassigned) [Example 58, 1-(4-((1R,5R or 1S,5S)-1-(5-amino-9-fluoro-8-methoxy-[1,2,4]triazolo[1,5-c]quinazolin-2-yl)-3-azabicyclo[3.1.0]hexan-3-yl)-1H-pyrazol-1-yl)-2-methylpropan-2-ol]
476	4.3	–	–	COc1cc2nc(N)n3nc(C4CCC(C)N(c5cn(CC(C)(C)O)nc5C)C4)nc3c2cc1F (single isomer, unassigned) [Example 42, 1-(4-((2S,5R or 2R,5S)-5-(5-amino-9-fluoro-8-methoxy-[1,2,4]triazolo[1,5-c]quinazolin-2-yl)-2-methylpiperidin-1-yl)-3-methyl-1H-pyrazol-1-yl)-2-methylpropan-2-ol]
180	1.5	–	–	COc1cc2nc(N)n3nc([C@@H]4CCCN(c5cnn(C(C)(C)C)c5)C4)nc3c2cc1F [Example 3, (R)-2-(1-(1-(tert-butyl)-1H-pyrazol-4-yl)piperidin-3-yl)-9-fluoro-8-methoxy-[1,2,4]triazolo[1,5-c]quinazolin-5-amine]
383	146	–	–	COc1cc2nc(N)n3nc(C4(F)CCN(c5cnn(CC(C)(C)O)c5)C4)nc3c2cc1F (single isomer, unassigned) [Example 62, (R or S)-1-(4-(3-(5-amino-9-fluoro-8-methoxy-[1,2,4]triazolo[1,5-c]quinazolin-2-yl)-3-fluoropyrrolidin-1-yl)-1H-pyrazol-1-yl)-2-methylpropan-2-ol]
182	16.9	–	–	COc1cc2nc(N)n3nc([C@@H]4CCN(c5cnn(CC6(O)CCC6)c5)C4)nc3c2cc1F [Example 38, (R)-1((4-(3-(5-amino-9-fluoro-8-methoxy-[1,2,4]triazolo[1,5-c]quinazolin-2-yl)prrolidin-l-yl)-1H-pyrazol-1-yl)methyl)cyclobutan-1-ol]
7140	–	30	–	COc1cc2nc(N)n3nc(C4CN(c5cnn(CC(C)(C)O)c5C)CCS4(=O)=O)nc3c2cc1F (single isomer, unassigned) [Example 144, (R or S)-2-(5-amino-9-fluoro-8-methoxy-[1,2,4]triazolo[1,5-c]quinazolin-2-yl)-4-(1-(2-hydroxy-2-methylpropyl)-5-methyl-1H-pyrazol-4-yl)thiomorpholine 1,1-dioxide]
